In US20050152842A1, “Poly (L-glutamic acid) paramagnetic material complex and use as a biodegradable MRI contrast agent” (priority 2003, published 2005):

Experiments:
[1] = 1.5 Tesla in phosphate-buffered saline; from Unger et al. 1999; cited from earlier work
[2] = MRI studies of vascular enhancement and intravascular retention in mice; format: in vivo; conditions: dose of 0.1 mmol/kg, intravenous
Method: For MRI studies using complexes prepared as described in the earlier examples, mice were anesthetized with 1-2% isoflurane in a 1 L/min O2 flow and place prone within a custom sled. A custom catheter made from 2 Fr silicon tubing and a 27 gauge needle was inserted in the tail vein of the mouse. Gd-DTPA ([…]) or PG-Hex-DTPA-Gd (0.004 mmol Gd/ml, 0.02 mmol Gd/kg) was injected through the catheter and the catheter flushed with normal saline. Two-dimensional coronal section spin-echo images were obtained before and at 2 hours and 24 hours after contrast agent injection using a 2.5 cm quadrature birdcage coil on a 1.5 T Sigma LX MR scanner (GE Medical Systems, WI). Six 1.5 mm contiguous sections were obtained using a 6 cm field-of-view, a 256×192 acquisition matrix and 4 averages. Similar studies were performed with PEG/PG-Hex-DTPA-Gd.
A fast spoiled gradient-echo sequence was used to obtain the data from 8 anatomic sections with 7.1 s temporal resolution. Other acquisition parameters were echo time: 1.4 ms, repetition time: 40 ms, flip angle: 35°, acquisition matrix size: 128×128. […] Such long intravascular retention times are useful for contrast-enhanced MR angiography, for assessment of microvascular volume, and for characterizing changes in permeability of highly “leaky” vasculature. Retention of the contrast in the tumor was also noted in the same time period (FIG. 6B).

Cathepsin B = Cathepsin B (Homo sapiens, UniProt P07858)
Method: PG-Hex-BzDTPA-Gd was dissolved in PBS buffer (pH 5) at a concentration of 5.3 mg/ml. Cathepsin B, which is able to degrade the complex, was added to the solution to a final concentration of 10 units/ml. The degradation was monitored at different time intervals using a gel permeation chromatography (GPC) system equipped with an TSK G3000PW column (TosoHaas), a Waters 515 HPLC pump, and a Viscotek E-Z^pro triple detector array. The system was eluted with PBS buffer containing 0.1% LiBr (pH 7.4) at a flow rate of 1 ml/min.

Row | Time in which the polymer was almost completely degraded (Cathepsin B) | Degradation on incubation with Cathepsin B (in words) (Cathepsin B; pH 5) | Compound | Relaxivity R1 [1] | Vascular enhancement 2 hours after injection [2]
1 |  |  | O=C([O-])CN(CCN(CC(=O)[O-])CC(=O)O)CCN(CC(=O)[O-])CC(=O)O.[Gd+3] [DTPA-Gd] | 4.1 mM^−1Sec^−1 | not detected
2 | 100 min | rapidly degraded | poly(L-glutamic acid) [PG] |  | 
